Results as given in publication PMC10467082, “Anti-Toxoplasma gondii Effects of Lipopeptide Derivatives of Lycosin-I” (Toxins, 2023).
“Also recorded” adds a separate entry of the source. Square brackets hold non-standard residues; d marks the D form. Ends that are not written are not given here. Peptide text beside a SMILES is read from it. * marks the point of attachment. Lauroyl = CCCCCCCCCCCC(=O)*; Ahx = NCCCCCC(=O)O

Columns and labels:
[1] = tested on: human foreskin fibroblasts (HFFs); assay: CCK-8 cell viability assay on host cells; format: cell-based; conditions: CCK-8, HFFs, 24 h; for IC50: 80-1.25 μM twofold dilution, three independent experiments, read-out: half-inhibitory concentration (IC50) on HFF viability; for cytotoxicity to HFFs: comparison with Lycosin-I where stated
Procedure: HFF cells were seeded in 96-well plates (1 × 10^4 cells per well). After 24 h of incubation, the previous complete medium was removed and replaced with the new complete medium containing different concentrations (80–1.25 μM, twofold serial dilution) of lipopeptides. Cells were treated with the complete medium in one well as the control group (each group was set up with three wells). After 24 h, 10 μL of CCK-8 reagent was added to each well and then incubated for 2 h. The absorbance value was measured at 450 nm using a microplate reader. Three independent experiments were carried out.

[2] = mouse serum (b5) / 10% serum, 24 h, mass spectrometry; cited from earlier work
Text: Cationic peptides with an α-helical structure found in venoms constitute a class of antimicrobial peptides (AMPs). In this class, amphiphilic peptides with net positive charges tend to adopt an α-helix structure when in contact with a hydrophilic/hydrophobic interface (such as the membrane of microorganisms), which helps the AMPs to insert into the cell membrane and disrupt the integrity of the cell membrane. Phospholipids on cell membranes are one of the targets of transmembrane peptides with an α -helical structure. […] The serum stability of Lycosin-I was in ...

T. gondii tachyzoites [3] = assay: Serum stability assay: serum incubation followed by trypan blue assay; format: in vitro ADME, Toxoplasma gondii; conditions: 100 μM in PBS containing 10% fetal bovine serum, 37 °C, 24 h; read-out tachyzoite mortality by trypan blue; three independent experiments
Procedure: (§1) To evaluate the difference of anti-T. gondii in the vitro between lipopeptides and Lycosin-I, we set up different concentration gradients, including 2.5 μM, 5 μM, 10 μM, 20 μM and 40 μM. The freshly obtained tachyzoites (3 × 10^6) were incubated with different concentrations of lipopeptides and PBS at room temperature for 2 h, then centrifuged at 3000 rbp for 8 min and the supernatant was discarded. The tachyzoite pellet was resuspended in PBS and mixed well. Then, the tachyzoite suspension was stained with 0.4% trypan blue staining solution for 5 min. Tachyzoite viability was observed under a light microscope (Motic China Group Co., Ltd., Xiamen, China), and five fields were randomly selected to calculate tachyzoite mortality. Three independent experiments were carried out.
A combination of serum incubation and a trypan blue assay was used to investigate whether or not the anti-Toxoplasma activity of lipopeptides and Lycosin-I was affected by serum. Briefly, stock solutions (1 mM) of Lycosin-I, L-C12 and L-an were diluted into 100 μM solutions in PBS containing 10% fetal bovine serum, and incubated at 37 °C for 24 h. Fresh tachyzoites were then treated with these solutions as described in the method in Section 5.3 for lipopeptide screening. Three independent experiments were carried out.

[4] = tested on: T. gondii tachyzoites (RH strain); assay: Trypan blue assay of tachyzoite mortality (lipopeptide screening); format: cell-based, Toxoplasma gondii; conditions: 2.5, 5, 10, 20, 40 μM, 2 h at room temperature
Procedure: as §1

T. gondii tachyzoites [5] = assay: Invasion assay of tachyzoites into HFFs; format: cell-based, Toxoplasma gondii; conditions: tachyzoites pretreated 2 h at 10 μM, HFFs infected MOI 5 for 2 h
Procedure: The HFF cells were seeded in 24-well plates with 14 mm coverslips (1 × 10^5 cells per well) and incubated for 24 h. Fresh tachyzoites were obtained aseptically from the peritoneal fluid of the KM mouse acutely infected with T. gondii. The tachyzoites were treated with Lycosin-I (5 μM, 10 μM), L-C12 (5 μM, 10 μM), L-an (5 μM, 10 μM), SDZ (10 μM, positive control) and DMEM (negative control) for 2 h each. The HFFs were then infected with pre-treated tachyzoites at a multiplicity of infection (MOI) of 5 (tachyzoites/cells = 5). After 2 h, the previous complete medium was removed and the HFFs were washed twice with PBS to remove extracellular tachyzoites. They were then fixed with methanol for 5 min, and then stained with Giemsa for 15 min. The coverslips were examined under a light microscope. The invasion rate of tachyzoites was calculated by counting the number of cells invaded by tachyzoites and the total number of cells in 5 randomly selected fields. Three independent experiments were carried out.

T. gondii tachyzoites [6] = format: cell-based, Toxoplasma gondii; conditions: 10 μM, 7 days, 500 tachyzoites per well, HFFs
Procedure: The HFF cells were seeded in 6-well plates (1 × 10^6 cells per well) and incubated for 48–72 h. Cells in the 6-well plates were infected with 500 fresh tachyzoites per well for 2 h. The well in which cells were not infected with tachyzoites was considered the blank control group. Cells infected with tachyzoites were then treated with Lycosin-I (10 μM), L-C12 (10 μM), L-an (10 μM), SDZ (10 μM, positive control) and DMEM (negative control), respectively. After 7 days, HFFs in the plates were washed twice with PBS, fixed with methanol for 5 min, and then stained with crystal violet for 20 min. Six-well plates were washed with running water, dried, photographed, and then the number and area of plaques were counted using Photoshop version 2020. Three independent experiments were carried out.

RH strain of T. gondii = format: in vivo, mouse; conditions: BALB/c mice, 1 × 10^3 tachyzoites i.p.; 4 mg/kg/day i.p. for 7 days; monitored 15 days; n = 8
Procedure: To evaluate the anti-T. gondii effect of lipopeptides in vivo, we established a mouse model acutely infected with the RH strain of T. gondii. Forty 8-week-old female BALB/c mice weighing 17–19 g were randomly divided into 5 groups (n = 8 per group) and intraperitoneally injected with 1 × 10^3 tachyzoites per mouse. Lycosin-I, L-C12, L-an and sulfadiazine (SDZ) were dissolved in PBS, respectively. As these peptides are small linear peptides that are easily degraded by pepsin; mice were treated with these peptides via intraperitoneal injection (the same way that the mice were infected with T. gondii) rather than oral gavage. After 4 h of infection, mice were traperitoneally injected with 4 mg/kg of Lycosin-I, L-C12, L-an and sulfadiazine solution (once a day) for 7 days. Mice in the negative control group were treated with PBS. Mice in this condition observed daily and the time of death was recorded. The experiment was approved by the Ethics Committee of the School of Basic Medicine of Central South University (approval number: 2021-KT24).

TNF-α = format: in vivo, mouse; conditions: 4 mg/kg, after 5 days of treatment, qRT-PCR
Procedure: (§2) Once T. gondii has infected a host, a number of inflammatory responses can be induced in the host to resist T. gondii invasion and proliferation. Therefore, we wanted to investigate the expression levels of anti-inflammatory and pro-inflammatory factors in the mice treated with lipopeptides. The expression levels of IFN-γ, TNF-α, IL-4 and IL-10 in the spleen tissues of mice after 5 days of treatment were determined via qRT-PCR (Figure 5). […] Compared to the PBS group, all treatment groups promoted the upregulation of the pro-inflammatory cytokines IFN-γ and TNF-α and the anti-inflammatory cytokine IL-4.
(§3) Total RNA was extracted from each sample using Total RNA Isolation Kit (ENOVA BIO Co., Ltd., Wuhan, China), in accordance with the manufacturer’s instructions. Reverse transcription of RNA into cDNA was performed using the PerfectStart Uni RT&qPCR Kit (TransGen Biotech Co., Ltd., Beijing, China) in accordance with the instructions. cDNA was used as a template for qRT-PCR using PerfectStart Uni RT&qPCR Kit (TransGen Biotech Co., Ltd., Beijing, China). Primers, listed in Table 2, were designed and synthesized by a biotechnology company (Sangon Biotech Co., Ltd., Shanghai, China). Analysis was performed using the comparative threshold cycle method (2^−∆∆Ct). The gene expression levels of genes were normalized to those of housekeeping genes (β-actin or GAPDH).

IFN-γ = format: in vivo, mouse; conditions: 4 mg/kg, after 5 days of treatment, qRT-PCR
Procedure: as §2, §3

IL-10 = format: in vivo, mouse; conditions: 4 mg/kg, after 5 days of treatment, qRT-PCR
Procedure: as §2, §3

IL-4 = format: in vivo, mouse; conditions: 4 mg/kg, after 5 days of treatment, qRT-PCR
Procedure: as §2, §3

T. gondii tachyzoites [7] = assay: Intracellular proliferation assay of tachyzoites in HFFs; format: cell-based, Toxoplasma gondii; conditions: 10 μM, 24 h
Procedure: HFFs were seeded in 24-well plates (1 × 10^5 cells per well) with 14 mm coverslips and incubated for 24 h. The HFFs were infected with fresh tachyzoites at a MOI of 5 for 2 h. The HFFs were then washed twice with PBS to remove extracellular tachyzoites and then treated with Lycosin-I (5 μM, 10 μM), L-C12 (5 μM, 10 μM), L-an (5 μM, 10 μM), SDZ (10 μM, positive control) and DMEM (negative control) for 24 h each. The HFFs were then washed twice with PBS, fixed with methanol for 5 min, and then stained with Giemsa for 15 min. The coverslips were observed under a light microscope to count the number of tachyzoites in 100 parasitophorous vacuoles (PVs). Three independent experiments were carried out.

Which IC50 [1] does the source give for CCCCCCCCCCCC(=O)N[C@@H](CCCCN)C(=O)NCC(=O)N[C@@H](Cc1c[nH]c2ccccc12)C(=O)N[C@@H](Cc1ccccc1)C(=O)N[C@@H](CCCCN)C(=O)N[C@@H](C)C(=O)N[C@@H](CCSC)C(=O)N[C@@H](CCCCN)C(=O)N[C@@H](CO)C(=O)N[C@H](C(=O)N[C@@H](C)C(=O)N[C@@H](CCCCN)C(=O)N[C@@H](Cc1ccccc1)C(=O)N[C@H](C(=O)N[C@@H](C)C(=O)N[C@@H](CCCCN)C(=O)N[C@@H](CCC(=O)O)C(=O)N[C@@H](CCCCN)C(=O)N[C@@H](CC(C)C)C(=O)N[C@@H](CCCCN)C(=O)N[C@@H](CCC(=O)O)C(=O)N[C@@H](Cc1c[nH]cn1)C(=O)N[C@@H](CC(C)C)C(=O)O)[C@@H](C)CC)[C@@H](C)CC [L-C12] (Lauroyl-KGWFKAMKSIAKFIAKEKLKEHL-OH) here?
Its IC50 is 15.6 µM.

Which “degradation after incubation in serum” value [2] does the source give for CCCCCCCCCCCC(=O)N[C@@H](CCCCN)C(=O)NCC(=O)N[C@@H](Cc1c[nH]c2ccccc12)C(=O)N[C@@H](Cc1ccccc1)C(=O)N[C@@H](CCCCN)C(=O)N[C@@H](C)C(=O)N[C@@H](CCSC)C(=O)N[C@@H](CCCCN)C(=O)N[C@@H](CO)C(=O)N[C@H](C(=O)N[C@@H](C)C(=O)N[C@@H](CCCCN)C(=O)N[C@@H](Cc1ccccc1)C(=O)N[C@H](C(=O)N[C@@H](C)C(=O)N[C@@H](CCCCN)C(=O)N[C@@H](CCC(=O)O)C(=O)N[C@@H](CCCCN)C(=O)N[C@@H](CC(C)C)C(=O)N[C@@H](CCCCN)C(=O)N[C@@H](CCC(=O)O)C(=O)N[C@@H](Cc1cnc[nH]1)C(=O)N[C@@H](CC(C)C)C(=O)O)[C@@H](C)CC)[C@@H](C)CC [L-C12] (Lauroyl-KGWFKAMKSIAKFIAKEKLKEHL-OH) here?
The value was “not degraded”.

And the “cytotoxicity to HFFs” value [1]?
Its value is “higher cytotoxicity”.

What about the “anti-T. gondii activity after serum treatment compared to control untreated with serum” value (T. gondii tachyzoites [3]) of the same molecule?
The value was “no significant difference; also recorded: retained substantial anti-T. gondii activity”.

Which IC50 [1] does the source give for CC[C@H](C)[C@H](NC(=O)[C@H](Cc1ccccc1)NC(=O)[C@H](CCCCN)NC(=O)[C@H](C)NC(=O)[C@@H](NC(=O)[C@H](CO)NC(=O)[C@H](CCCCN)NC(=O)[C@H](CCSC)NC(=O)[C@H](C)NC(=O)[C@H](CCCCN)NC(=O)[C@H](Cc1ccccc1)NC(=O)[C@H](Cc1c[nH]c2ccccc12)NC(=O)CNC(=O)[C@H](CCCCN)NC(=O)CCCCCN)[C@@H](C)CC)C(=O)N[C@@H](C)C(=O)N[C@@H](CCCCN)C(=O)N[C@@H](CCC(=O)O)C(=O)N[C@@H](CCCCN)C(=O)N[C@@H](CC(C)C)C(=O)N[C@@H](CCCCN)C(=O)N[C@@H](CCC(=O)O)C(=O)N[C@@H](Cc1c[nH]cn1)C(=O)N[C@@H](CC(C)C)C(=O)O [L-an] (H-[Ahx]KGWFKAMKSIAKFIAKEKLKEHL-OH) here?
The IC50 was 30.9 µM.

And the “cytotoxicity to HFFs” value [1]?
Its value is “no significant difference”.

What about the “anti-T. gondii activity after serum treatment compared to control untreated with serum” value (T. gondii tachyzoites [3]) of the same molecule?
Its value is “no significant difference; also recorded: retained substantial anti-T. gondii activity”.

With NCCCCCC(=O)O [aminocaproic acid] as the molecule, how does the “anti-T. gondii activity in vitro (tachyzoite mortality)” value [4] read?
Its value is “no effect”.

What does the source list for “H-KGWFKAMKSIAKFIAKEKLKEHL-OH [Lycosin-I]”?
inhibition of tachyzoite invasion compared with SDZ (T. gondii tachyzoites [5]): more pronounced inhibition than SDZ; number and area of plaques in contrast with DMEM group (T. gondii tachyzoites [6]): significantly reduced; plaques compared to DMEM group (T. gondii tachyzoites [6]): reduced; survival time of mice compared to control group (RH strain of T. gondii): significantly prolonged the survival time; expression of TNF-α in spleen compared to PBS group (TNF-α): promoted the expression; expression of IFN-γ in spleen compared to PBS group (IFN-γ): promoted the expression; expression of IL-10 in spleen compared to PBS group (IL-10): inhibited the upregulation of IL-10; expression of IL-4 in spleen compared to PBS group (IL-4): promoted IL-4 expression; proliferation rate of tachyzoites in HFFs (negative group = 100%) (T. gondii tachyzoites [7]; HFFs infected at MOI 5): below 55%; PVs with 16 tachyzoites (T. gondii tachyzoites [7]; proportion in 100 PVs): hard to see a PV with 16 tachyzoites

Which “cytotoxicity to HFFs” value [1] does the source give for KGWFKAMKSIAKFIAKEKLKEHL [Lycosin-I] here?
Its value is “concentration-dependent cytotoxicity”.

What about the “anti-T. gondii activity after serum treatment compared to control untreated with serum” value (T. gondii tachyzoites [3]) of the same molecule?
Its value is “significantly had reduced anti-T. gondii activity; also recorded: only slightly decreased”.
